According to ChEMBL document CHEMBL1201862, “PubChem BioAssay data set” (2004):
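96-well plates; 48 h exposure; 5 concentrations. Endpoints by linear interpolation between flanking doses. Not reached: highest tested concentration assigned. GI50: concentration for 50% inhibition of growth.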 Activity calls are given as the source filed them. Rule as the data show it: active = GI50 up to about 1.1 µM and inactive = higher.

Legend:
Assay in all cases: NCI anticancer screen, dose series, 48 h
[1] = test system: SK-MEL-2
[2] = test system: Malme-3M
[3] = test system: TK-10
[4] = test system: 786-0
[5] = test system: SK-OV-3
[6] = test system: NCI-H23
[7] = test system: SF-268
[8] = test system: A498
[9] = test system: MOLT-4
[10] = test system: CAKI-1
[11] = test system: OVCAR-5
[12] = test system: OVCAR-4
[13] = test system: SR
[14] = test system: SK-MEL-5
[15] = test system: A549
[16] = test system: SF-539
[17] = test system: BT-549
[18] = test system: DU-145
[19] = test system: Hs-578T
[20] = test system: HL-60

Row | Compound | GI50 [1] | GI50 [2] | GI50 [3] | GI50 [4] | GI50 [5] | GI50 [6] | GI50 [7] | GI50 [8] | GI50 [9] | GI50 [10] | GI50 [11] | GI50 [12] | GI50 [13] | GI50 [14] | GI50 [15] | GI50 [16] | GI50 [17] | GI50 [18] | GI50 [19] | GI50 [20]
1 | O=C(/C=C/c1ccccc1O)C(c1ccccc1)c1ccccc1 | > 100 µM (inactive) | > 100 µM (inactive) | > 100 µM (inactive) | 51.1 µM (inactive) | > 100 µM (inactive) | > 100 µM (inactive) | > 100 µM (inactive) | > 100 µM (inactive) | > 100 µM (inactive) | > 100 µM (inactive) | > 100 µM (inactive) | 48.5 µM (inactive) | > 100 µM (inactive) | > 100 µM (inactive) | > 100 µM (inactive) | > 100 µM (inactive) | – | – | – | –
2 | O=C(O)CCc1nc2cc3ccccc3cc2[nH]c1=O | > 100 µM (inactive) | – | > 100 µM (inactive) | > 100 µM (inactive) | > 100 µM (inactive) | > 100 µM (inactive) | > 100 µM (inactive) | > 100 µM (inactive) | > 100 µM (inactive) | > 100 µM (inactive) | > 100 µM (inactive) | > 100 µM (inactive) | > 100 µM (inactive) | > 100 µM (inactive) | > 100 µM (inactive) | > 100 µM (inactive) | > 100 µM (inactive) | > 100 µM (inactive) | – | –
3 | O=C(/C=C/c1ccc(Cl)cc1)c1cccs1 | 24.5 µM (inactive) | 16.6 µM (inactive) | 20.8 µM (inactive) | 15 µM (inactive) | 26.4 µM (inactive) | > 10 µM (inactive) | 29.7 µM (inactive) | 23.3 µM (inactive) | 15.7 µM (inactive) | 24 µM (inactive) | – | > 10 µM (inactive) | 6.24 µM (inactive) | 18.2 µM (inactive) | 29.1 µM (inactive) | 34.3 µM (inactive) | – | 40.6 µM (inactive) | 36 µM (inactive) | 7.19 µM (inactive)
4 | CC(C)[Si](Oc1cc2c3c(ccc2c(O)c1[C@@H](C)CO[Si](C)(C)C(C)(C)C)C(C)(C)CCC3)(C(C)C)C(C)C | > 100 µM (inactive) | 22.6 µM (inactive) | > 100 µM (inactive) | > 100 µM (inactive) | > 100 µM (inactive) | > 100 µM (inactive) | > 100 µM (inactive) | > 100 µM (inactive) | 29.9 µM (inactive) | > 100 µM (inactive) | > 100 µM (inactive) | > 100 µM (inactive) | 51.5 µM (inactive) | 23.8 µM (inactive) | > 100 µM (inactive) | > 100 µM (inactive) | – | > 100 µM (inactive) | > 100 µM (inactive) | 17.6 µM (inactive)
5 | O=c1[nH]n(Cc2ccccc2)c2ccc([N+](=O)[O-])cc12 | 47.8 µM (inactive) | 44.5 µM (inactive) | > 100 µM (inactive) | 82.4 µM (inactive) | 15.7 µM (inactive) | 56.5 µM (inactive) | > 100 µM (inactive) | 47.3 µM (inactive) | 34.7 µM (inactive) | 59.2 µM (inactive) | > 100 µM (inactive) | > 100 µM (inactive) | 69.7 µM (inactive) | 46.9 µM (inactive) | 61 µM (inactive) | 87.1 µM (inactive) | – | > 100 µM (inactive) | 35.2 µM (inactive) | 33.8 µM (inactive)
6 | N#Cc1nc(C(CO)N(Cc2ccccc2)C(=O)O)oc1N (configuration not stated) | > 100 µM (inactive) | – | > 100 µM (inactive) | > 100 µM (inactive) | > 100 µM (inactive) | > 100 µM (inactive) | > 100 µM (inactive) | > 100 µM (inactive) | > 100 µM (inactive) | > 100 µM (inactive) | > 100 µM (inactive) | > 100 µM (inactive) | > 100 µM (inactive) | > 100 µM (inactive) | > 100 µM (inactive) | > 100 µM (inactive) | > 100 µM (inactive) | > 100 µM (inactive) | – | > 100 µM (inactive)
7 | CCC1(O)CC(OC2CC(N(C)C)C(OC3CC(O)C(OC4OC(C)C(=O)C=C4N)C(C)O3)C(C)O2)c2c(cc3c(c2O)C(=O)c2c(O)cccc2C3=O)C1C(=O)OC (configuration not stated) | 0.0221 µM (active) | 0.0508 µM (active) | 0.06 µM (active) | 0.00254 µM (active) | 0.0518 µM (active) | 0.104 µM (active) | 0.199 µM (active) | – | 0.0015 µM (active) | 0.00604 µM (active) | 0.0678 µM (active) | 0.01 µM (active) | 0.00625 µM (active) | 0.00469 µM (active) | 0.00272 µM (active) | 0.0501 µM (active) | – | 0.00637 µM (active) | 0.12 µM (active) | 0.0177 µM (active)
8 | C=C(C)C1CC=C(C)C(=O)C1 (configuration not stated) [CARVONE] | > 100 µM (inactive) | > 100 µM (inactive) | > 100 µM (inactive) | > 100 µM (inactive) | – | > 100 µM (inactive) | > 100 µM (inactive) | – | > 100 µM (inactive) | > 100 µM (inactive) | > 100 µM (inactive) | > 100 µM (inactive) | > 100 µM (inactive) | > 100 µM (inactive) | > 100 µM (inactive) | > 100 µM (inactive) | – | > 100 µM (inactive) | > 100 µM (inactive) | > 100 µM (inactive)
